Assay results taken from PubChem BioAssay (NCI).
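How tested: cells in 96-well plates exposed to compound for 48 hours at five concentrations. Abbreviation: GI50, concentration required for 50% inhibition of growth. The concentration for full growth arrest is given as TGI.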

What was measured:
Test in all cases: DTP human tumour cell line panel, 48 h
CCRF-CEM leukemia = tested on: CCRF-CEM leukemia
HOP-92 NSCLC = tested on: HOP-92 NSCLC
MALME-3M melanoma = tested on: MALME-3M melanoma
MOLT-4 leukemia = tested on: MOLT-4 leukemia
OVCAR-5 ovarian = tested on: OVCAR-5 ovarian
SK-MEL-28 melanoma = tested on: SK-MEL-28 melanoma
SN12C renal = tested on: SN12C renal
SR leukemia = tested on: SR leukemia
TK-10 renal = tested on: TK-10 renal
UACC-257 melanoma = tested on: UACC-257 melanoma

S=C(Nc1ccc(Cl)cc1)Nc1ccc(-c2nc3ccccc3o2)cc1
GI50 (CCRF-CEM leukemia): 0.062 µM | TGI (CCRF-CEM leukemia): 19.3 µM | GI50 (HOP-92 NSCLC): 17.2 µM | TGI (HOP-92 NSCLC): 50.4 µM | GI50 (MALME-3M melanoma): 23.8 µM | TGI (MALME-3M melanoma): 59.9 µM | GI50 (MOLT-4 leukemia): 18.5 µM | TGI (MOLT-4 leukemia): > 100 µM | GI50 (OVCAR-5 ovarian): 20.4 µM | TGI (OVCAR-5 ovarian): 52.9 µM | GI50 (SK-MEL-28 melanoma): 20.6 µM | TGI (SK-MEL-28 melanoma): 43.2 µM | GI50 (SN12C renal): 13.7 µM | TGI (SN12C renal): 28.8 µM | GI50 (SR leukemia): 19 µM | TGI (SR leukemia): 52.3 µM | GI50 (TK-10 renal): 21.2 µM | TGI (TK-10 renal): 74.1 µM | GI50 (UACC-257 melanoma): 21.4 µM | TGI (UACC-257 melanoma): 45.4 µM

O=C(O)c1ccc(S(=O)(=O)Nc2ccc3oc4c(c3c2)C(=O)CCC4)cc1
GI50 (CCRF-CEM leukemia): > 100 µM | TGI (CCRF-CEM leukemia): > 100 µM | GI50 (HOP-92 NSCLC): > 100 µM | TGI (HOP-92 NSCLC): > 100 µM | GI50 (MALME-3M melanoma): > 100 µM | TGI (MALME-3M melanoma): > 100 µM | GI50 (MOLT-4 leukemia): > 100 µM | TGI (MOLT-4 leukemia): > 100 µM | GI50 (OVCAR-5 ovarian): > 100 µM | TGI (OVCAR-5 ovarian): > 100 µM | GI50 (SK-MEL-28 melanoma): > 100 µM | TGI (SK-MEL-28 melanoma): > 100 µM | GI50 (SN12C renal): > 100 µM | TGI (SN12C renal): > 100 µM | GI50 (SR leukemia): > 100 µM | TGI (SR leukemia): > 100 µM | GI50 (TK-10 renal): > 100 µM | TGI (TK-10 renal): > 100 µM | GI50 (UACC-257 melanoma): > 100 µM | TGI (UACC-257 melanoma): > 100 µM

O=S(=O)(SCc1ccccc1)C(c1ccccc1)c1ccccc1
TGI (CCRF-CEM leukemia): > 100 µM | TGI (HOP-92 NSCLC): 35.5 µM | TGI (MALME-3M melanoma): > 100 µM | TGI (MOLT-4 leukemia): 43.7 µM | TGI (OVCAR-5 ovarian): > 100 µM | TGI (SK-MEL-28 melanoma): > 100 µM | TGI (SN12C renal): 68.2 µM | TGI (SR leukemia): 74.6 µM | TGI (TK-10 renal): > 100 µM | TGI (UACC-257 melanoma): > 100 µM
